Experiments:
[1] = biological target: T1, human Cereblon WT GST-tagged protein (Homo sapiens, UniProt Q96SW2); experiment: CRBN-binding affinity by HTRF (CEREBLON BINDING kit); settings: HTRF inhibitory activity, CEREBLON BINDING kit; read-out: HTRF IC50
T1 construct: purchased CISBIO 64BDCRBNPEH

IKZF3 = biological target: T2, IKZF3 (Homo sapiens, UniProt Q96SW2+Q9UKT9); experiment: Western-blot assay of substrate protein degradation in hPBMCs, IKZF3; format: cell-based; settings: 24 hours of compound treatment, compounds tested at 50 nM and 500 nM (concentration of the table not stated)
T2 construct: endogenous in cells; host or cells: hPBMCs (Milecell Biotechnologies)
T2 sequence (Q9UKT9 whole entry): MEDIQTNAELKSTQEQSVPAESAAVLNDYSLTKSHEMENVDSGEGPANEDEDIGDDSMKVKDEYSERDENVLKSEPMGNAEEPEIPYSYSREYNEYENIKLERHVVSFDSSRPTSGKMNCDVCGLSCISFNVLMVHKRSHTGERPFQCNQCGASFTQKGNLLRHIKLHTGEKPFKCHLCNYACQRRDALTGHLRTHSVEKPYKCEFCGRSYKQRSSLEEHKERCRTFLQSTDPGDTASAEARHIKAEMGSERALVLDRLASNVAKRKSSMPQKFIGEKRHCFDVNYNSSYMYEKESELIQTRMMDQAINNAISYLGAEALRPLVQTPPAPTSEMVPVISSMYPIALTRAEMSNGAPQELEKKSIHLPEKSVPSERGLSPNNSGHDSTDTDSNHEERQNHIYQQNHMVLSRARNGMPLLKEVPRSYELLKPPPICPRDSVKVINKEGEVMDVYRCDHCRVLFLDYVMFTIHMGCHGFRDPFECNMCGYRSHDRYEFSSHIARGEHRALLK
T2 sequence (Q96SW2 whole entry): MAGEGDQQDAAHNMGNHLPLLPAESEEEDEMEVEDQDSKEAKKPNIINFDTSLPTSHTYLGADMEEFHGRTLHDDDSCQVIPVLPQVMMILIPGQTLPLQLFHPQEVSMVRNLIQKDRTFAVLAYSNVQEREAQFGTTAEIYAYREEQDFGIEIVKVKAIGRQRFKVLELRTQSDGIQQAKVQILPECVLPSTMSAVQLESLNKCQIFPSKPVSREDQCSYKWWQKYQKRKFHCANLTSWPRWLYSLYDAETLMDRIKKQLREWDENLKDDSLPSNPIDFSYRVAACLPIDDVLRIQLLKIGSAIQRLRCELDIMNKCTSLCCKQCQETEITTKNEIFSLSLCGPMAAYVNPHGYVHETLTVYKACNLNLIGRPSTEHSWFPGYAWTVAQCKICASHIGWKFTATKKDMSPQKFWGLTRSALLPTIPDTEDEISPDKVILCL
T2 sequence (Q16531 whole entry partner): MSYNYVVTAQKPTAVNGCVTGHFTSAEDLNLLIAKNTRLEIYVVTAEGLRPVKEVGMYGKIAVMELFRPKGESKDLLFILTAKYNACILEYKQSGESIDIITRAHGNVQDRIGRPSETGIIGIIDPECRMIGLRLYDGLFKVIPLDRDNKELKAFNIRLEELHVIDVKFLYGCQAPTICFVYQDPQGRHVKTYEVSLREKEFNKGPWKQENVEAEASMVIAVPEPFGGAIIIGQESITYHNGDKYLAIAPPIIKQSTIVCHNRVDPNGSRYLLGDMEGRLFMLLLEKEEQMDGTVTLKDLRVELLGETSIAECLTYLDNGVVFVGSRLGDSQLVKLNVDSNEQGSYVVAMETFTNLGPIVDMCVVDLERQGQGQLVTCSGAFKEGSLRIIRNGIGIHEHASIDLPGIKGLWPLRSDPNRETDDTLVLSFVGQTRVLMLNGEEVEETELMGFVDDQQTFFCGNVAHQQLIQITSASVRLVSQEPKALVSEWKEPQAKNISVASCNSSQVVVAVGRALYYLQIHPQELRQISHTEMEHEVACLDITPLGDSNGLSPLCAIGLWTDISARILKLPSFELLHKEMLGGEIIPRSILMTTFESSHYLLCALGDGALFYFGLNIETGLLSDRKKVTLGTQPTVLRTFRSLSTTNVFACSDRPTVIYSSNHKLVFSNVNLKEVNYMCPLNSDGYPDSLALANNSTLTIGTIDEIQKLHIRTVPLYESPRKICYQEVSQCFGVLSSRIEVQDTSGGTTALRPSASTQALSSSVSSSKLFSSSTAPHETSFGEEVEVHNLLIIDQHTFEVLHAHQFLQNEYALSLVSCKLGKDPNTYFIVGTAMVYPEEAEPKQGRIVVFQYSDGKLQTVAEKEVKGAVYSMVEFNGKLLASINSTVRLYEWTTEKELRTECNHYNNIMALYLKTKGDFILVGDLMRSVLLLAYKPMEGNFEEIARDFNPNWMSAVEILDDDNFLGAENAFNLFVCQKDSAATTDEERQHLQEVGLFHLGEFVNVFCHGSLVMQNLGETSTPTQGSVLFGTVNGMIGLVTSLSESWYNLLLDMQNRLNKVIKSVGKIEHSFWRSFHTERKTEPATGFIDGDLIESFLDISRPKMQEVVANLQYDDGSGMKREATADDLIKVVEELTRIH

MM.1R = experiment: Tumor cell proliferation inhibition (CellTiter-Meiluncell Luminescent Cell Viability Assay), MM.1R; settings: Homo sapiens, 96 h, read-out: inhibitory activity (IC50, nM) against tumor cells proliferation, MM.1R
Vcap = experiment: Tumor cell proliferation inhibition (CellTiter-Meiluncell Luminescent Cell Viability Assay), Vcap; settings: Homo sapiens, 96 h, read-out: inhibitory activity (IC50, nM) against tumor cells proliferation, Vcap
Method: (§1) The tumor cells used herein were cultured in a cell culture medium listed in table 2 at 37°C in an incubator with 5% CO2. Prior to experimentation, all cell lines used were correctly identified by STR profiling, and tested negative for mycoplasma contamination using a mycoplasma detection kit through routine screenings.
(§2) On the following day, the test compounds of the present disclosure were subjected to serial dilution. […] Subsequently, 0.5 µL of the test compound dilution was transferred into the 96-well plate containing the cells, with each well containing 100 µL of cell culture medium. […] Into the 96-well plate, the diluted test compounds and corresponding detection reagents were added, resulting in final test compound concentrations of 500 nM and 10 nM, respectively. The experimental procedure is described below using the diluted 2 µM test compound as an example.
(§3) After the cells were treated with the compounds of the present disclosure for a specified period (the treatment durations were shown in Table 3), the cell viability assay reagent was added to the culture medium according to the kit's instructions to determine cell viability. […] All controls were treated using the same procedure as the compounds of the present disclosure. The growth inhibition curves for the compounds of the present disclosure were plotted using Prism GraphPad software, and the IC50 values were calculated therefrom.

IKZF2 = biological target: T3, IKZF2 (Homo sapiens, UniProt Q96SW2+Q9UKS7); experiment: Western-blot assay of substrate protein degradation in hPBMCs, IKZF2; format: cell-based; settings: 24 hours of compound treatment, compounds tested at 50 nM and 500 nM (concentration of the table not stated)
T3 construct: endogenous in cells; host or cells: hPBMCs (Milecell Biotechnologies)
T3 sequence (Q9UKS7 whole entry): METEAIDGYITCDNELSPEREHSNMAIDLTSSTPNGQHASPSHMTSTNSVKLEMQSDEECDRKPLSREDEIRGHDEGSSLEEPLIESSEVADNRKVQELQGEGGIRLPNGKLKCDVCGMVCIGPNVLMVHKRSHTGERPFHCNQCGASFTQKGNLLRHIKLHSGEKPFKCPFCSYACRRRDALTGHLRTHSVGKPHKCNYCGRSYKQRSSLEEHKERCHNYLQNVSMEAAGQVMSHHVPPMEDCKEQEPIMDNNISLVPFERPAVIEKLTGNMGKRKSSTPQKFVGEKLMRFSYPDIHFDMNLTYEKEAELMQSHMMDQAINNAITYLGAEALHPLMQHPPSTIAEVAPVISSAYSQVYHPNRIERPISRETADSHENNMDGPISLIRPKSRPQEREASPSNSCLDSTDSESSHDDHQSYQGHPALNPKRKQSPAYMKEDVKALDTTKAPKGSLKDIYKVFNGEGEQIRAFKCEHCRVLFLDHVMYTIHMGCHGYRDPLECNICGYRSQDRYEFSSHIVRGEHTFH
T3 sequence (Q96SW2 whole entry): as the sequence (Q96SW2 whole entry) above
T3 sequence (Q16531 whole entry partner): as the sequence (Q16531 whole entry partner) above

CCRF-CEM = experiment: Tumor cell proliferation inhibition (CellTiter-Meiluncell Luminescent Cell Viability Assay), CCRF-CEM; settings: Homo sapiens, 96 h, read-out: inhibitory activity (IC50, nM) against tumor cells proliferation, CCRF-CEM
Method: as §1, §2, §3

IKZF1 = biological target: T4, IKZF1 (Homo sapiens, UniProt Q13422+Q96SW2); experiment: Western-blot assay of substrate protein degradation in hPBMCs, IKZF1; format: cell-based; settings: 24 hours of compound treatment, compounds tested at 50 nM and 500 nM (concentration of the table not stated)
T4 construct: endogenous in cells; host or cells: hPBMCs (Milecell Biotechnologies)

GSPT1 = biological target: T5, GSPT1 (Homo sapiens, UniProt P15170+Q96SW2); experiment: Western-blot assay of substrate protein degradation in hPBMCs, GSPT1; format: cell-based; settings: 24 hours of compound treatment, compounds tested at 50 nM and 500 nM (concentration of the table not stated)
T5 construct: endogenous in cells; host or cells: hPBMCs (Milecell Biotechnologies)
T5 sequence (P15170 whole entry): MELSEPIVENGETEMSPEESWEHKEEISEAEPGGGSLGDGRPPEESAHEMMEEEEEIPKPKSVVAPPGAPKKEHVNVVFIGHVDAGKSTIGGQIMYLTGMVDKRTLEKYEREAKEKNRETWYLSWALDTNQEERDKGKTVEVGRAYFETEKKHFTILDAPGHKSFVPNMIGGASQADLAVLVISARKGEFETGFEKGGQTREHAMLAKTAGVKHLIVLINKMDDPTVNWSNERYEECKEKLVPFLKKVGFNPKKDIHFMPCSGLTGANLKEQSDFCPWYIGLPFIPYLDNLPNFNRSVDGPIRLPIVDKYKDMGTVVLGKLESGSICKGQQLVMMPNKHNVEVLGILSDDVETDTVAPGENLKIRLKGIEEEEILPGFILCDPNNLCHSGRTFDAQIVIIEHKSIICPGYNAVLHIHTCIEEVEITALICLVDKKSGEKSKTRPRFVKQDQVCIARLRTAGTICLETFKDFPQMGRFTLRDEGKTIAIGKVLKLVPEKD
T5 sequence (Q96SW2 whole entry): as the sequence (Q96SW2 whole entry) above
T5 sequence (Q16531 whole entry partner): as the sequence (Q16531 whole entry partner) above

WEE1 = biological target: T6, WEE1 (Homo sapiens, UniProt P30291+Q96SW2); experiment: Western-blot assay of substrate protein degradation in hPBMCs, WEE1; format: cell-based; settings: 24 hours of compound treatment, compounds tested at 50 nM and 500 nM (concentration of the table not stated)
T6 construct: endogenous in cells; host or cells: hPBMCs (Milecell Biotechnologies)
T6 sequence (P30291 whole entry): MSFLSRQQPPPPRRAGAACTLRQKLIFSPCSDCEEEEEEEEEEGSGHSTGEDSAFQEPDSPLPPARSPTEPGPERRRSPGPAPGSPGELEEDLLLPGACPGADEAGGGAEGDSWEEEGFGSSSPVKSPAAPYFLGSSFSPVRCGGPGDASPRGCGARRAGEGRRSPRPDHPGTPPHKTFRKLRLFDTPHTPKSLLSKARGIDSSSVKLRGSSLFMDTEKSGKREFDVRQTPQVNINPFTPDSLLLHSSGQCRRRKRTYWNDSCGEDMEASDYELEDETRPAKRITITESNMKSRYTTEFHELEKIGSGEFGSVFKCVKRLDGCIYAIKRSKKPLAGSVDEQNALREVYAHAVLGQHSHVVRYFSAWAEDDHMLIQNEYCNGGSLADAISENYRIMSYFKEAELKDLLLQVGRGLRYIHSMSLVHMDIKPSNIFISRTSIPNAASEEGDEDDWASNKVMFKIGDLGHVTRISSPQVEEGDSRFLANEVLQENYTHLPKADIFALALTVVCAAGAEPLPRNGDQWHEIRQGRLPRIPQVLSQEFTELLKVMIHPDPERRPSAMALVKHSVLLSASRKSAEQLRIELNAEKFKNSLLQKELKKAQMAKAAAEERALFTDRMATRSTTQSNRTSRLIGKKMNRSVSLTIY
T6 sequence (Q96SW2 whole entry): as the sequence (Q96SW2 whole entry) above
T6 sequence (Q16531 whole entry partner): as the sequence (Q16531 whole entry partner) above

[2] = test system: Human acute T lymphocytic leukemia cells (Molt-4); experiment: Tumor cell proliferation inhibition (CellTiter-Meiluncell Luminescent Cell Viability Assay), Molt-4; settings: MOLT-4, 96 h, read-out: inhibitory activity (IC50, nM) against tumor cells proliferation, Molt 4
CAL-62 = experiment: Tumor cell proliferation inhibition (CellTiter-Meiluncell Luminescent Cell Viability Assay), CAL-62; settings: Homo sapiens, CAL-62, 96 h, read-out: inhibitory activity (IC50, nM) against tumor cells proliferation, CAL-62
CK1α = biological target: T7, CK1α (Homo sapiens, UniProt P48729+Q96SW2); experiment: Western-blot assay of substrate protein degradation in hPBMCs, CK1α; format: cell-based; settings: 24 hours of compound treatment, compounds tested at 50 nM and 500 nM (concentration of the table not stated)
T7 construct: endogenous in cells; host or cells: hPBMCs (Milecell Biotechnologies)
T7 sequence (P48729 whole entry): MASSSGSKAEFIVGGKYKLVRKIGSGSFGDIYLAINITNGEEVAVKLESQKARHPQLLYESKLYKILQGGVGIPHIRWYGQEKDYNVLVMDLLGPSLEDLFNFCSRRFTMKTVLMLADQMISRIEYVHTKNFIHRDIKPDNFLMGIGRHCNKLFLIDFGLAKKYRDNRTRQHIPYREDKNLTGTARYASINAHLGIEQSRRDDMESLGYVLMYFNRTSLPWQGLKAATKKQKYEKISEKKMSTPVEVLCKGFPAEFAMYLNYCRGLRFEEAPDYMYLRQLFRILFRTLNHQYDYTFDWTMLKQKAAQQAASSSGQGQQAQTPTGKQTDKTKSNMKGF
T7 sequence (Q96SW2 whole entry): as the sequence (Q96SW2 whole entry) above
T7 sequence (Q16531 whole entry partner): as the sequence (Q16531 whole entry partner) above

Jurkat = experiment: Tumor cell proliferation inhibition (CellTiter-Meiluncell Luminescent Cell Viability Assay), Jurkat; settings: Homo sapiens, 96 h, read-out: inhibitory activity (IC50, nM) against tumor cells proliferation, Jurkat
NCI-H1975 = experiment: Tumor cell proliferation inhibition (CellTiter-Meiluncell Luminescent Cell Viability Assay), NCI-H1975; settings: Homo sapiens, NCI-H1975, 96 h, read-out: inhibitory activity (IC50, nM) against tumor cells proliferation, H1975
Method: as §1, §2, §3

[3] = test system: Human breast cancer cells (MDA-MB-231); experiment: Tumor cell proliferation inhibition (CellTiter-Meiluncell Luminescent Cell Viability Assay), MDA-MB-231; settings: MDA-MB-231, 96 h, read-out: inhibitory activity (IC50, nM) against tumor cells proliferation, MDA-MB-231
TMD8 = experiment: Tumor cell proliferation inhibition (CellTiter-Meiluncell Luminescent Cell Viability Assay), TMD8; settings: Homo sapiens, TMD8, 96 h, read-out: inhibitory activity (IC50, nM) against tumor cells proliferation, TMD8

T1 sequence (Q96SW2 whole entry): as the sequence (Q96SW2 whole entry) above

Structure (SMILES)	IC50 [1] [nM]	IKZF3 substrate protein remaining % (IKZF3)	IC50 (MM.1R) [nM]	IC50 (Vcap) [nM]	IKZF2 substrate protein remaining % (IKZF2)	IC50 (CCRF-CEM) [nM]	IKZF 1 substrate protein remaining % (IKZF1)	GSPT1 substrate protein remaining % (GSPT1)	Weel substrate protein remaining % (WEE1)	IC50 [2] [nM]	IC50 (CAL-62) [nM]	CK1a substrate protein remaining % (CK1α)	IC50 (Jurkat) [nM]	IC50 (NCI-H1975) [nM]	IC50 [3] [nM]	IC50 (TMD8) [nM]
O=C1CCC(N2Cc3cc(CN4CCC(c5ccc(F)cc5)CC4)ccc3C2=O)C(=O)N1 (stereo not drawn) [GT-04471, 3-(5-((4-(4-fluorophenyl)piperidin-1-yl)methyl)-1-oxoisoindolin-2-yl)piperidine-2,6-dione]	500 to 1000	A (0% ≤ substrate protein remaining % ≤ 80%)	50 to 100	100 to 500	A (0% ≤ substrate protein remaining % ≤ 80%)	10 to 50	A (0% ≤ substrate protein remaining % ≤ 80%)	A (0% ≤ substrate protein remaining % ≤ 80%)	A (0% ≤ substrate protein remaining % ≤ 80%)	10 to 50	100 to 500	B (80%< substrate protein remaining %≤ 100%)	10 to 50			
COc1ccccc1N1CCN(Cc2ccc3c(c2)CN(C2CCC(=O)NC2=O)C3=O)CC1 (stereo not drawn) [GT-04490, 3-(5-((4-(2-methoxyphenyl)piperazin-1-yl)methyl)-1-oxoisoindolin-2-yl)piperidine-2,6-dione]	500 to 1000	B (80%< substrate protein remaining %≤ 100%)	100 to 500	500 to 1000	A (0% ≤ substrate protein remaining % ≤ 80%)	50 to 100	B (80%< substrate protein remaining %≤ 100%)	A (0% ≤ substrate protein remaining % ≤ 80%)	B (80%< substrate protein remaining %≤ 100%)	100 to 500	500 to 1000	A (0% ≤ substrate protein remaining % ≤ 80%)	50 to 100			
O=C1CCC(N2Cc3cc(CN4CC=C(c5nccc(Cl)c5Cl)CC4)ccc3C2=O)C(=O)N1 (stereo not drawn) [GT-04570, 3-(5-((3,4-dichloro-3',6'-dihydro-[2,4'-bipyridin]-1'(2'H)-yl)methyl)-1-oxoisoindolin-2-yl)piperidine-2,6-dione]	500 to 1000	A (0% ≤ substrate protein remaining % ≤ 80%)			A (0% ≤ substrate protein remaining % ≤ 80%)		A (0% ≤ substrate protein remaining % ≤ 80%)	A (0% ≤ substrate protein remaining % ≤ 80%)	A (0% ≤ substrate protein remaining % ≤ 80%)	1 to 5		A (0% ≤ substrate protein remaining % ≤ 80%)		10 to 50	1 to 5	10 to 50
O=C1CCC(N2Cc3cc(CN4CCC(c5cccs5)CC4)ccc3C2=O)C(=O)N1 (stereo not drawn) [GT-04571, 3-(1-oxo-5-((4-(thiophen-2-yl)piperidin-1-yl)methyl)isoindolin-2-yl)piperidine-2,6-dione]	1000 to 1500	A (0% ≤ substrate protein remaining % ≤ 80%)			A (0% ≤ substrate protein remaining % ≤ 80%)		A (0% ≤ substrate protein remaining % ≤ 80%)	A (0% ≤ substrate protein remaining % ≤ 80%)	A (0% ≤ substrate protein remaining % ≤ 80%)	5 to 10		A (0% ≤ substrate protein remaining % ≤ 80%)		50 to 100	10 to 50	100 to 500
Cc1ccc(C2=CCN(Cc3ccc4c(c3)CN(C3CCC(=O)NC3=O)C4=O)CC2)s1 (stereo not drawn) [GT-04572, 3-(5-((4-(5-methylthiophen-2-yl)-3,6-dihydropyridin-1(2H)-yl)methyl)-1-oxoisoindolin-2-yl)piperidine-2,6-dione]	500 to 1000	A (0% ≤ substrate protein remaining % ≤ 80%)			A (0% ≤ substrate protein remaining % ≤ 80%)		A (0% ≤ substrate protein remaining % ≤ 80%)	A (0% ≤ substrate protein remaining % ≤ 80%)	A (0% ≤ substrate protein remaining % ≤ 80%)	1 to 5		A (0% ≤ substrate protein remaining % ≤ 80%)		10 to 50	10 to 50	10 to 50
O=C1CCC(N2Cc3cc(CN4CCN(c5c[nH]c6ncccc56)CC4)ccc3C2=O)C(=O)N1 (stereo not drawn) [GT-04601, 3-(5-((4-(1H-pyrrolo[2,3-b]pyridin-3-yl)piperazin-1-yl)methyl)-1-oxoisoindolin-2-yl)piperidine-2,6-dione]	< 500	A (0% ≤ substrate protein remaining % ≤ 80%)			B (80%< substrate protein remaining %≤ 100%)		A (0% ≤ substrate protein remaining % ≤ 80%)	A (0% ≤ substrate protein remaining % ≤ 80%)	A (0% ≤ substrate protein remaining % ≤ 80%)	100 to 500		A (0% ≤ substrate protein remaining % ≤ 80%)			500 to 1000	500 to 1000
Cc1sc2ncnc(C3=CCN(Cc4ccc5c(c4)CN(C4CCC(=O)NC4=O)C5=O)CC3)c2c1C (stereo not drawn) [GT-04727, 3-(5-((4-(5,6-dimethylthieno[2,3-d]pyrimidin-4-yl)-3,6-dihydropyridin-1(2H)-yl)methyl)-1-oxoisoindolin-2-yl)piperidine-2,6-dione]	< 500	A (0% ≤ substrate protein remaining % ≤ 80%)			B (80%< substrate protein remaining %≤ 100%)		A (0% ≤ substrate protein remaining % ≤ 80%)	A (0% ≤ substrate protein remaining % ≤ 80%)	A (0% ≤ substrate protein remaining % ≤ 80%)	10 to 50		A (0% ≤ substrate protein remaining % ≤ 80%)			100 to 500	500 to 1000
O=C1CCC(N2Cc3cc(CN4CCC(c5noc6cc(F)ccc56)CC4)c(F)cc3C2=O)C(=O)N1 (stereo not drawn) [GT-04766, 3-(6-fluoro-5-((4-(6-fluorobenzo[d]isoxazol-3-yl)piperidin-1-yl)methyl)-1-oxoisoindolin-2-yl)piperidine-2,6-dione]	1500 to 1900									1 to 5				10 to 50	10 to 50	10 to 50

From patent EP4745137A1 (Gluetacs Therapeutics (Shanghai) Co., Ltd., priority 2023, dated 2025)
